Data reported in patent US12692269B2, “Therapeutic compounds” (Genentech, Inc., priority 2019, dated 2026).

Experiments:
Assay type in all cases: binding
TEAD2 YAP50-100 = TEAD2 YAP50-100 (Homo sapiens, UniProt Q15562); assay: TEAD2-YAP HTRF (TR-FRET) protein-protein interaction assay; details: TEAD2, YAP peptide 50-100, HTRF; for EC50: read-out: TEAD2 YAP50-100 HTRF combined: EC50
In short: (§1)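 His-tagged TEAD YAP-binding domain (aa 217-447) pre-bound to Eu anti-His tracer, incubated with compound 30 min, then biotinylated YAP (aa 50-100) or TAZ (aa 13-57) peptide with streptavidin-XL665 added for 60 min at room temperature. TR-FRET read at 665/615 nm; IC50 or EC50 from four-parameter fit.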

TEAD3 YAP50-100 = TEAD3 YAP50-100 (Homo sapiens, UniProt Q99594); assay: TEAD3-YAP HTRF (TR-FRET) protein-protein interaction assay; details: TEAD3, YAP peptide 50-100, HTRF; for EC50: read-out: TEAD3 YAP50-100 HTRF combined: EC50
Sequence of TEAD3 YAP50-100 (Q99594 173-435 limits assumed): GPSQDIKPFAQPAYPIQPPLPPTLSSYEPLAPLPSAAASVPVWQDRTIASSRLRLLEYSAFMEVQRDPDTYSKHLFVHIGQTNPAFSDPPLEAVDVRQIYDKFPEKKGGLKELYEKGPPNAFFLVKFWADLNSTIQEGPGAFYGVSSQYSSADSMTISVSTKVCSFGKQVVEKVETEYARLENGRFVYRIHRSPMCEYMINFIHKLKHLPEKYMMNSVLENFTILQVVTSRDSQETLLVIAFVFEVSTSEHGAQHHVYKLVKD
In short: as §1

[1] = biological target: TEAD4 TAZ (amino acids 13-57) (Homo sapiens, UniProt Q15561); assay: TEAD4-TAZ HTRF (TR-FRET) protein-protein interaction assay; details: for TEAD4 TAZ HTRF combined: Max % Inhibition: TEAD4, TAZ peptide; for EC50: TEAD4-TAZ HTRF, TR-FRET 665 nm/615 nm, read-out: TEAD4 TAZ HTRF combined: EC50
Sequence of TEAD4 TAZ (amino acids 13-57) (Q15561 217-434 limits assumed): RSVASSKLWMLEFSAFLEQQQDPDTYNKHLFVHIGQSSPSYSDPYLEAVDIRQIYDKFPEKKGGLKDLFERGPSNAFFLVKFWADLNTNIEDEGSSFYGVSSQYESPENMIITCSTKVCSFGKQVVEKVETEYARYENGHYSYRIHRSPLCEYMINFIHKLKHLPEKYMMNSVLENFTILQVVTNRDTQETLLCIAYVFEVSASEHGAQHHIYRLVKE
In short: as §1

[2] = biological target: TEAD2 TAZ (amino acids 13-57) (Homo sapiens, UniProt Q15562); assay: TEAD2-TAZ HTRF (TR-FRET) protein-protein interaction assay; details: for TEAD2 TAZ HTRF combined: Max % Inhibition: TEAD2, TAZ peptide; for EC50: TEAD2-TAZ HTRF, TR-FRET 665 nm/615 nm, read-out: TEAD2 TAZ HTRF combined: EC50
Sequence of TEAD2 TAZ (amino acids 13-57) (Q15562 217-447): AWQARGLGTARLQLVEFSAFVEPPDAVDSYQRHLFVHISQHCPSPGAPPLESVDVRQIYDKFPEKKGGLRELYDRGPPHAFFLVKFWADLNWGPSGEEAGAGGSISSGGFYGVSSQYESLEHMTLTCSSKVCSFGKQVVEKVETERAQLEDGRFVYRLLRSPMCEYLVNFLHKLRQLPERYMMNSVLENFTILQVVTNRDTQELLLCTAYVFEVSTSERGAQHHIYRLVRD
In short: as §1

TEAD4 YAP50-100 = TEAD4 YAP50-100 (Homo sapiens, UniProt Q15561); assay: TEAD4-YAP HTRF (TR-FRET) protein-protein interaction assay; details: TEAD4, YAP peptide 50-100, HTRF; for EC50: read-out: TEAD4 YAP50-100 HTRF combined: EC50
Sequence of TEAD4 YAP50-100 (Q15561 217-434 limits assumed): as the sequence (Q15561 217-434 limits assumed) above
In short: as §1

[3] = biological target: TEAD1 TAZ (amino acids 13-57) (Homo sapiens, UniProt P28347); assay: TEAD1-TAZ HTRF (TR-FRET) protein-protein interaction assay; details: for TEAD1 TAZ HTRF combined: Max % Inhibition: TEAD1, TAZ peptide; for EC50: TEAD1-TAZ HTRF, TR-FRET 665 nm/615 nm, read-out: TEAD1 TAZ HTRF combined: EC50
Sequence of TEAD1 TAZ (amino acids 13-57) (P28347 167-426 limits assumed): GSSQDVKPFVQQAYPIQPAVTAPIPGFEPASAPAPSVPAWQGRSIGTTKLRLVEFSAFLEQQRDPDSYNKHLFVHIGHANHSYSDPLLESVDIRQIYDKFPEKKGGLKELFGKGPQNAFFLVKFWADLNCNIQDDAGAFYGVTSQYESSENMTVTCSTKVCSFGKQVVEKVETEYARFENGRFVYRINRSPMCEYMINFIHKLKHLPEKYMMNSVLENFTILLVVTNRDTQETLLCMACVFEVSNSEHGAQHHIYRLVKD
In short: as §1

[4] = biological target: TEAD3 TAZ (amino acids 13-57) (Homo sapiens, UniProt Q99594); assay: TEAD3-TAZ HTRF (TR-FRET) protein-protein interaction assay; details: for TEAD3 TAZ HTRF combined: Max % Inhibition: TEAD3, TAZ peptide; for EC50: TEAD3-TAZ HTRF, TR-FRET 665 nm/615 nm, read-out: TEAD3 TAZ HTRF combined: EC50
Sequence of TEAD3 TAZ (amino acids 13-57) (Q99594 173-435 limits assumed): as the sequence (Q99594 173-435 limits assumed) above
In short: as §1

TEAD1 YAP50-100 = TEAD1 YAP50-100 (Homo sapiens, UniProt P28347); assay: TEAD1-YAP HTRF (TR-FRET) protein-protein interaction assay; details: TEAD1, YAP peptide 50-100, HTRF; for EC50: read-out: TEAD1 YAP50-100 HTRF combined: EC50
Sequence of TEAD1 YAP50-100 (P28347 167-426 limits assumed): as the sequence (P28347 167-426 limits assumed) above
In short: as §1

Sequence of TEAD2 YAP50-100 (Q15562 217-447): as the sequence (Q15562 217-447) above

Structure (SMILES) | TEAD2 YAP50-100 HTRF combined: Max % Inhibition (TEAD2 YAP50-100) | EC50 (TEAD2 YAP50-100) | TEAD3 YAP50-100 HTRF combined: Max % Inhibition (TEAD3 YAP50-100) | EC50 (TEAD3 YAP50-100) | TEAD4 TAZ HTRF combined: Max % Inhibition [1] | EC50 [1] | TEAD2 TAZ HTRF combined: Max % Inhibition [2] | EC50 [2] | TEAD4 YAP50-100 HTRF combined: Max % Inhibition (TEAD4 YAP50-100) | EC50 (TEAD4 YAP50-100) | TEAD1 TAZ HTRF combined: Max % Inhibition [3] | EC50 [3] | TEAD3 TAZ HTRF combined: Max % Inhibition [4] | EC50 [4] | TEAD1 YAP50-100 HTRF combined: Max % Inhibition (TEAD1 YAP50-100) | EC50 (TEAD1 YAP50-100)
CCN(C)C(=O)c1nn2c(=O)cc(-c3ccc(C4CCCCC4)cc3)[nH]c2c1C(=O)N1CC(CF)C1 [Compound 35, 5-(4-Cyclohexylphenyl)-N-ethyl-3-(3-(fluoromethyl)azetidine-1-carbonyl)-N-methyl-7-oxo-4,7-dihydropyrazolo[1,5-a]pynmidine-2-carboxamide] | 71.5% | 20 nM | 68.0% | 130 nM | 37.0% | 140 nM | 71.5% | 20 nM | 52.5% | 180 nM | 59.0% | 80 nM | 57.0% | 150 nM | 72.0% | 70 nM
CC(C)c1ccc(COc2cc(=O)n3nc(-c4cnccn4)c(C(=O)N4CC(CF)C4)c3[nH]2)cc1 [Compound 52, 3-(3-(Fluoromethyl)azetidine-1-carbonyl)-5-((4-isopropylbenzyl)oxy)-2-(pyrazin-2-yl)pyrazolo[1,5-a]primidin-7(4H)-one] | 68.0% | 20 nM | 57.0% | 150 nM | 58.0% | 150 nM | 69.0% | 20 nM | 66.0% | 180 nM | 62.0% | 60 nM | 48.0% | 180 nM | 70.0% | 50 nM
C[C@H]1[C@@H](CF)CN1C(=O)c1c(C(=O)N(C)C)nn2c(=O)cc(-c3ccc(C4CCCCC4)cc3)[nH]c12 [Compound 5, 5-(4-Cyclohexylphenyl)-3-((2S,3S)-3-(fluoromethyl)-2-methylazetidine-1-carbonyl)-N,N-dimethyl-7-oxo-4,7-dihydropyrazolo[1,5-a]pyrimidine-2-carboxamide] | 83.0% | 10 nM | 75.5% | 130 nM | 41.0% | 170 nM | 78.5% | 10 nM | 56.0% | 250 nM | 62.0% | 70 nM | 66.5% | 140 nM | 73.0% | 80 nM
O=C(c1c(-c2cnccn2)nn2c(=O)cc(-c3ccc(C4CCCCC4)c(F)c3)[nH]c12)N1CC(CF)C1 [Compound 23, 5-(4-Cyclohexyl-3-fluorophenyl)-3-(3-(fluoromethyl)azetidine-1-carbonyl)-2-(pyrazin-2-yl)pyrazolo[1,5-a]pyrimidin-7(4H)-one] | 55.5% | 10 nM | 64.0% | 110 nM | 35.0% | 50 nM | 55.5% | 10 nM | 39.5% | 50 nM | 61.5% | 70 nM | 56.5% | 110 nM | 70.0% | 40 nM
O=C(c1c(-c2cnccn2)nn2c(=O)cc(-c3ccc(CC4CCCC4)cc3)[nH]c12)N1CC(CF)C1 [Compound 25, 5-(4-(Cyclopentylmethyl)phenyl)-3-(3-(fluoromethyl)azetidine-1-carbonyl)-2-(pyrazin-2-yl)pyrazolo[1,5-a]pyrimidin-7(4H)-one] | 63.5% | 10 nM | 50.0% | 40 nM | 47.0% | 20 nM | 62.0% | 10 nM | 45.5% | 20 nM | 52.0% | 40 nM | 44.0% | 40 nM | 60.0% | 30 nM

Continued, values first:

TEAD2 YAP50-100 HTRF combined: Max % Inhibition (TEAD2 YAP50-100) | EC50 (TEAD2 YAP50-100) | TEAD3 YAP50-100 HTRF combined: Max % Inhibition (TEAD3 YAP50-100) | EC50 (TEAD3 YAP50-100) | TEAD4 TAZ HTRF combined: Max % Inhibition [1] | EC50 [1] | TEAD2 TAZ HTRF combined: Max % Inhibition [2] | EC50 [2] | TEAD4 YAP50-100 HTRF combined: Max % Inhibition (TEAD4 YAP50-100) | EC50 (TEAD4 YAP50-100) | TEAD1 TAZ HTRF combined: Max % Inhibition [3] | EC50 [3] | TEAD3 TAZ HTRF combined: Max % Inhibition [4] | EC50 [4] | TEAD1 YAP50-100 HTRF combined: Max % Inhibition (TEAD1 YAP50-100) | EC50 (TEAD1 YAP50-100) | Structure (SMILES)
92.5% | 50 nM | 79.0% | 180 nM | 71.5% | 4000 nM | 89.0% | 50 nM | 72.5% | 4250 nM | 65.0% | 220 nM | 71.0% | 200 nM | 69.0% | 190 nM | Cc1nccnc1-c1nn2c(=O)cc(-c3ccc(O[C@@H](c4ccccc4)C(F)(F)F)cc3)[nH]c2c1C(=O)N1CC(CF)C1 [Compound 67, (S)-3-(3-(Fluoromethyl)azetidine-1-carbonyl)-2-(3-methylpyrazin-2-yl)-5-(4-(2,2,2-trifluoro-1-phenylethoxy)phenyl)pyrazolo[1,5-a]pyrimidin-7(4H)-one]
51.0% | 20 nM | 53.0% | 100 nM | 54.5% | 60 nM | 53.5% | 10 nM | 35.0% | 70 nM | 46.5% | 70 nM | 50.5% | 90 nM | 56.0% | 80 nM | O=C(c1c(-c2ncccn2)nn2c(=O)cc(-c3ccc(C4(C5CCCC5)CC4)cc3)[nH]c12)N1CC(CF)C1 [Compound 57, 5-(4-(1-Cyclopentylcyclopropyl)phenyl)-3-(3-(fluoromethyl)azetidine-1-carbonyl)-2-(pyrimidin-2-yl)pyrazolo[1,5-a]pyrimidin-7(4H)-one]
63.0% | 10 nM | 64.5% | 90 nM | 68.5% | 140 nM | 66.5% | 10 nM | 59.0% | 180 nM | 70.5% | 40 nM | 58.5% | 100 nM | 71.0% | 40 nM | CCCCc1ccc(-c2cc(=O)n3nc(-c4nccnc4C)c(C(=O)N4CC(CF)C4)c3[nH]2)cc1 [Compound 58, 5-(4-Butylphenyl)-3-(3-(fluoromethyl)azetidine-1-carbonyl)-2-(3-methylpyrazin-2-yl)pyrazolo[1,5-a]pyrimidin-7(4H)-one]
73.0% | 20 nM | 76.0% | 160 nM | 56.0% | 30 nM | 75.0% | 20 nM | 54.0% | 30 nM | 74.0% | 80 nM | 71.5% | 170 nM | 77.0% | 70 nM | [2H]C1([2H])C([2H])([2H])C([2H])([2H])C([2H])(c2ccc(-c3cc(=O)n4nc(-c5nccnc5C)c(C(=O)N5C[C@H](CF)[C@@H]5C)c4[nH]3)cc2)C([2H])([2H])C1([2H])[2H] [Compound 72, 3-[(2S,35)-3-(fluoromethyl)-2-methyl-azetidine-1-carbonyl]-2-(3-methylpyrazin-2-yl)-5-[4-(1,2,2,3,3,4,4,5,5,6,6-undecadeuteriocyclohexyl)phenyl]-4H-pyrazolo[1,5-a]pyrimidin-7-one]
